According to US7642400B2, “Protein kinase C iota” (Mayo Foundation for Medical Education and Research, priority 2004, dated 2010):

Legend:
[1] = molecular target: T1, interaction of PKCι polypeptides with PAR6 polypeptides (Homo sapiens, UniProt P41743); assay: Primary screen: FRET assay of PKCι113-YFP-N1 (PYN) and PAR6125-CFP-C1; details: FIG. 18; less binding as concentration increased
T1 construct: amino acids 1-113 or a full-length PKCι polypeptide; 6xHis; made in house
T1 sequence (P41743 10-122): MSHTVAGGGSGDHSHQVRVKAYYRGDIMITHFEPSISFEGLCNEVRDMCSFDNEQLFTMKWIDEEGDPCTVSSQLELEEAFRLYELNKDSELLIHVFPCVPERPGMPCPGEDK
Method: A primary screen was performed as follows to identify test compound having the potential to inhibit the interaction of PKCι polypeptides with PAR6 polypeptides. Bacterially expressed PKCι113-YFP-N1 (PYN) was isolated from the soluble fraction of bacterial lysates by affinity purification according to the manufacturer's protocol (B-PER 6×His Purification Kit; Pierce). The purified polypeptide was dialyzed against Tris buffer (50 mM Tris, pH 8.0; 135 mM NaCl; 10% glycerol; 0.002% EDTA) containing 2 M urea. PAR6125-CFP-C1 recombinant polypeptide was isolated from the inclusion body pellets of bacterial lysates using the B-PER reagent (Pierce) according to the manufacturer's protocol. […] Yields were measured by fluorescence in a SpectraMax Gemini microplate reader (Molecular Devices).
To perform the assay, PYN was diluted to 4000 relative fluorescent units/50 μl in Tris buffer plus 1 M urea, and PAR6125-CFP-C1 was diluted to 400 relative fluorescent units/50 μl Tris buffer plus 1 M urea. […] Fluorescence was measured in a SpectraMax Gemini plate reader. Cyan fluorescence was measured at excitation 395 nm, emission 475 nm, and cutoff of 455 nm. Yellow fluorescence was measured at excitation 395 nm, emission 529, and cutoff of 515=n. […]

[2] = molecular target: T1, interaction of PKCι polypeptides with PAR6 polypeptides; assay: Secondary screen: PYN bound to plate-immobilised biotin-tagged PAR6; format: binding; details: for Secondary Screen: amount of PYN bound to biotin-tagged PAR6 plates
Method: Multiple test compounds that were classified as hits in the primary screen as well as additional related compounds were evaluated in a secondary screen designed as follows. Briefly, a 96-well microtiter plate coated with streptavidin (Nunc #436014) was incubated for 2-4 hours at room temperature with 100 μl of a 20-30 μg/ml solution of biotin-tagged PAR6 (whole polypeptide) in phosphate-buffered saline containing Tween-20 (PBST). Plates were washed twice with PBST, then once with incubation buffer (50 mM Tris, pH 8.0; 135 mM NaCl; 10% glycerol; 0.002% EDTA). Incubation buffer (50 μl) was added to each well. The compounds to be tested were added (10 μl) followed by PYN (50 μl) diluted in incubation buffer to an approximate concentration of 4000-5000 relative fluorescent units per 50 μl. Plates were incubated overnight at 4° C. Plates were washed twice with incubation buffer, after which 50 μl incubation buffer was added to retain moisture in the wells. The amount of PYN bound on the plates was determined by measuring yellow fluorescence (532/526) in a Typhoon imager. Fluorescence was quantitated by Softmax Pro software.
A dose-response analysis was performed using the secondary screening assay and increasing amounts (e.g., 0, 0.1, 1, 10, 100, and […]) of gossypol, hexestrol, thimerosal, ebselen, ATG, ATM, ellagic acid, cisplatin, apomorphine, or phenylmercuric acetate.

SMILES: OC[C@H]1O[C@H]([S-])[C@H](O)[C@@H](O)[C@@H]1O.[Au+] [Aurothioglucose]
- dose-response in the FRET assay: relative binding of PKCι and PAR6 polypeptides [1]: dose-dependent effect
- Secondary Screen [2]: Confirmed
- Secondary Screen ([2]; listed as aurothioglucose): confirmed
- dose-response analysis using the secondary screening assay ([2]; increasing amounts, e.g. 0, 0.1, 1, 10, 100, and 100 μM): dose-dependent response was detected
